Experimental data: patent US4568689A, “Pharmaceutical preparation for the treatment of hypertensive disease and myocardial infarction” (priority 1983, dated 1986)

What was measured:
in vivo = conditions: mouse, ip
Method: (§1) Acute toxicity measurements were carried out in experiments on white mongrel mice upon intraperitoneal administration.

white mongrel mice = test: in vivo; conditions: mouse, ip
Method: as §1

[1] = tested on: arterial pressure and vegetative responses in narcotized animals; test: arterial pressure, breathing and electrocardiogram in narcotized cats, intravenous; assay type: in vivo
Method: The effect of the pharmaceutical preparation according to the present invention on the arterial pressure and vegetative responses was studied in acute experiments on cats with a mass of 2.8-4.0 kg narcotized with α-glucochloralose (90 mg/kg) and urethane (100 mg/kg, intraperitoneally). The breathing, arterial pressure in the common carotid artery and electrocardiogram of the second standard lead were recorded.
The influence of the preparation according to the present invention on hemodynamic effects of acetylcholine (0.1 μg/kg) neoepinephrine (0.2 μg/kg), noradrenaline (1 μg/kg), histamine (1.5 μg/kg) and angiotensin (0.1 μg/kg) was also studied. The preparation of this invention was intravenously administered in the form of a 2.5% solution in doses of 0.5 to 10 mg/kg. The peripheral part of the vagus nerve was irritated by supromaximum pulses with the frequency of 30 Hz and duration of 0.1 ms.

[2] = tested on: arterial pressure of spontaneously hypertensive rats; test: effect of the oral form on arterial pressure, spontaneously hypertensive rats; assay type: in vivo

C[N+]1(C)CC(CC(=O)[O-])C(=O)N1 (stereo not shown) [Preparation of this invention, (1,1-dimethyl-3-oxopyrazolin-1-io-4-yl)acetate]
LD50 (in vivo): 2240 mg/kg | LD50 (white mongrel mice): 2,239 (1,279-3,917) mg/kg | Variation of arterial pressure ([1]; 5 mg/kg intravenously): -16% | peripheral resistance ([1]; in vivo): reduction of peripheral resistance | effect on breathing and electrocardiogram ([1]; intravenously, 0.5 to 10 mg/kg): does not substantially affect the breathing and electrocardiogram of the animals | Variation of arterial pressure, diastolic ([2]; 50 mg/kg per os, 30 minutes): -10 % of the initial | Variation of arterial pressure, systolic ([2]; 50 mg/kg per os, 30 minutes): -3 % of the initial | Variation of arterial pressure, diastolic ([2]; 50 mg/kg per os, 1 hour): +2 % of the initial | Variation of arterial pressure, diastolic ([2]; 50 mg/kg per os, 2 hours): -8 % of the initial | Variation of arterial pressure, systolic ([2]; 50 mg/kg per os, 2 hours): -5 % of the initial | Variation of arterial pressure, diastolic ([2]; 50 mg/kg per os, 4 hours): -3 % of the initial | Variation of arterial pressure, diastolic ([2]; 50 mg/kg per os, 24 hours): -2 % of the initial | Variation of arterial pressure, systolic ([2]; 50 mg/kg per os, 24 hours): -7 % of the initial | Variation of arterial pressure, diastolic ([2]; 75 mg/kg per os, 30 minutes): -12 % of the initial | Variation of arterial pressure, systolic ([2]; 75 mg/kg per os, 30 minutes): -16 % of the initial | Variation of arterial pressure, systolic ([2]; 75 mg/kg per os, 2 hours): -18 % of the initial | Variation of arterial pressure, diastolic ([2]; 75 mg/kg per os, 4 hours): -11 % of the initial | Variation of arterial pressure, systolic ([2]; 75 mg/kg per os, 4 hours): -8 % of the initial | Variation of arterial pressure, diastolic ([2]; 75 mg/kg per os, 24 hours): -22 % of the initial | Variation of arterial pressure, systolic ([2]; 75 mg/kg per os, 24 hours): -20 % of the initial | stable reduction of the arterial pressure ([2]; 75 mg/kg per os, 24 hours after administration): about 20% | Variation of arterial pressure, diastolic ([2]; 100 mg/kg per os, 30 minutes): -11 % of the initial | Variation of arterial pressure, systolic ([2]; 100 mg/kg per os, 30 minutes): -13 % of the initial | Variation of arterial pressure, diastolic ([2]; 100 mg/kg per os, 2 hours): -7 % of the initial | Variation of arterial pressure, systolic ([2]; 100 mg/kg per os, 2 hours): -8 % of the initial | Variation of arterial pressure, diastolic ([2]; 100 mg/kg per os, 4 hours): -13 % of the initial | Variation of arterial pressure, systolic ([2]; 100 mg/kg per os, 4 hours): -13 % of the initial | Variation of arterial pressure, systolic ([2]; 100 mg/kg per os, 24 hours): -12 % of the initial
